From PubChem BioAssay AID1745844 (Carcinogenic Potency Database (CPDB), 2022)
Active and inactive are the calls of the source. No rule for the calls is given here.

System: rodent lifetime carcinogenesis bioassay, tumor incidence TD50
Test: chronic cancer bioassays in animals – CPDB, compiled studies (AID 1745844)
[1] = mouse, strain B6C3F1, females, in feed, site: any site (literature study), lesion: several types, types named in the paper, dosed 78 weeks, study length 104 weeks
[2] = mouse, strain B6C3F1, males, in feed, site: any site (literature study), lesion: several types, types named in the paper, dosed 78 weeks, study length 104 weeks
[3] = rat, strain Fischer 344, females, in feed, site: any site (literature study), lesion: several types, types named in the paper, dosed 78 weeks, study length 104 weeks
[4] = rat, strain Fischer 344, males, in feed, site: any site (literature study), lesion: several types, types named in the paper, dosed 78 weeks, study length 104 weeks

`O=C1N(CCO)CCN1N=Cc1ccc([N+](=O)[O-])o1` was tested, and the TD50 (rat, strain Sprague-Dawley, females, in feed, site: any site (literature study), lesion: several types, types named in the paper, dosed 46 weeks, study length 66 weeks) was 18 mg/kg/day and the TD50 (rat, strain Sprague-Dawley, females, in feed, site: mammary gland, lesion: adenocarcinoma, dosed 46 weeks, study length 66 weeks) was 16.7 mg/kg/day.
`CC(=O)Nc1ccc(N=Nc2cc(C)ccc2O)cc1` showed a TD50 (mouse, strain B6C3F1, females, in feed, site: all sites, lesion: leukemia + lymphoma, dosed 103 weeks, study length 105 weeks) of 1510 mg/kg/day, a TD50 (mouse, strain B6C3F1, females, in feed, site: all sites, lesion: lymphoma, dosed 103 weeks, study length 105 weeks) of 1680 mg/kg/day and a TD50 (mouse, strain B6C3F1, females, in feed, site: any site (literature study), lesion: several types, types named in the paper, dosed 103 weeks, study length 105 weeks) of 769 mg/kg/day. The TD50 (mouse, strain B6C3F1, females, in feed, site: liver, lesion: hepatocellular adenoma + hepatocellular carcinoma + neoplastic nodule, dosed 103 weeks, study length 105 weeks) was 1020 mg/kg/day, the TD50 (mouse, strain B6C3F1, females, in feed, site: liver, lesion: hepatocellular adenoma + hepatocellular carcinoma, dosed 103 weeks, study length 105 weeks) was 1020 mg/kg/day and the TD50 (mouse, strain B6C3F1, females, in feed, site: liver, lesion: hepatocellular adenoma, dosed 103 weeks, study length 105 weeks) was 1340 mg/kg/day. For the same compound, the TD50 (mouse, strain B6C3F1, males, in feed, site: any site (literature study), lesion: several types, types named in the paper, dosed 103 weeks, study length 104 weeks) was 17200 mg/kg/day, the TD50 (mouse, strain B6C3F1, males, in feed, site: lung, lesion: alveolar/bronchiolar adenoma + alveolar/bronchiolar carcinoma, dosed 103 weeks, study length 104 weeks) was 2440 mg/kg/day and the TD50 (mouse, strain B6C3F1, males, in feed, site: lung, lesion: alveolar/bronchiolar adenoma, dosed 103 weeks, study length 104 weeks) was 2150 mg/kg/day (inactive). The carcinogen call (rat, strain Fischer 344, females, in feed, site: any site (literature study), lesion: several types, types named in the paper, dosed 103 weeks, study length 104 weeks) was “negative (inactive)”, the TD50 (rat, strain Fischer 344, females, in feed, site: liver, lesion: hepatocellular adenoma + hepatocellular carcinoma + neoplastic nodule, dosed 103 weeks, study length 104 weeks) was 46800 mg/kg/day and the TD50 (rat, strain Fischer 344, males, in feed, site: liver, lesion: hepatocellular adenoma + hepatocellular carcinoma + neoplastic nodule, dosed 103 weeks, study length 104 weeks) was 833 mg/kg/day. The TD50 (rat, strain Fischer 344, males, in feed, site: liver, lesion: hepatocellular carcinoma + neoplastic nodule, dosed 103 weeks, study length 104 weeks) was 833 mg/kg/day, the TD50 (rat, strain Fischer 344, males, in feed, site: liver, lesion: neoplastic nodule, dosed 103 weeks, study length 104 weeks) was 380 mg/kg/day and the TD50 (rat, strain Fischer 344, males, in feed, site: stomach, lesion: all tumors, dosed 103 weeks, study length 104 weeks) was 4090 mg/kg/day.
In the case of `Cc1cc(C)nc(-c2ccc([N+](=O)[O-])o2)n1`, the carcinogen call (rat, strain Sprague-Dawley, females, in feed, site: forestomach, lesion: squamous-cell carcinoma, dosed 42 weeks, study length 59 weeks) is reported as “positive”, the TD50 (rat, strain Sprague-Dawley, females, in feed, site: intestine, lesion: hemangioendothelial sarcoma, dosed 42 weeks, study length 59 weeks) is reported as 3.43 mg/kg/day and the TD50 (rat, strain Sprague-Dawley, females, in feed, site: intestine, lesion: sarcoma, dosed 42 weeks, study length 59 weeks) is reported as 2.61 mg/kg/day. It also gave a TD50 (rat, strain Sprague-Dawley, females, in feed, site: kidney, lesion: transitional-cell carcinoma, dosed 42 weeks, study length 59 weeks) of 45.5 mg/kg/day and a TD50 (rat, strain Sprague-Dawley, females, in feed, site: mammary gland, lesion: adenocarcinoma, dosed 42 weeks, study length 59 weeks) of 6.45 mg/kg/day.
Compound `CCCCN(CCCC)N=O` has a TD50 (mouse, strain ICR/Jcl, males, in feed, site: esophagus, lesion: papilloma, dosed 52 weeks, study length 65 weeks) of 11.9 mg/kg/day, a TD50 (mouse, strain ICR/Jcl, males, in feed, site: forestomach, lesion: several types, types named in the paper, dosed 52 weeks, study length 65 weeks) of 0.686 mg/kg/day and a TD50 (mouse, strain ICR/Jcl, males, in feed, site: forestomach, lesion: squamous-cell carcinoma, dosed 52 weeks, study length 65 weeks) of 1.09 mg/kg/day. It also gave a TD50 (mouse, strain ICR/Jcl, males, in feed, site: forestomach, lesion: squamous-cell papilloma, dosed 52 weeks, study length 65 weeks) of 7.69 mg/kg/day, a TD50 (mouse, strain ICR/Jcl, males, in feed, site: liver, lesion: adenoma, dosed 52 weeks, study length 65 weeks) of 4.34 mg/kg/day and a TD50 (mouse, strain ICR/Jcl, males, in feed, site: liver, lesion: several types, types named in the paper, dosed 52 weeks, study length 65 weeks) of 2.65 mg/kg/day. For the same compound, the TD50 (mouse, strain ICR/Jcl, males, in feed, site: lung, lesion: adenoma, dosed 52 weeks, study length 65 weeks) was 8 mg/kg/day, the TD50 (rat, strain Fischer 344, males, by gavage, site: forestomach, lesion: carcinoma, dosed 30 weeks, study length 108 weeks) was 0.914 mg/kg/day and the TD50 (rat, strain Fischer 344, males, by gavage, site: liver, lesion: hepatocellular carcinoma, dosed 30 weeks, study length 108 weeks) was 0.691 mg/kg/day. The TD50 (rat, strain Fischer 344, males, by gavage, site: lung, lesion: carcinoma, dosed 30 weeks, study length 108 weeks) was 1.16 mg/kg/day and the TD50 (rat, strain Fischer 344, males, by gavage, site: urinary bladder, lesion: transitional-cell carcinoma, dosed 30 weeks, study length 108 weeks) was 1.47 mg/kg/day.
With `O=[N+]([O-])OCC(CO[N+](=O)[O-])O[N+](=O)[O-]` the TD50 (rat, strain Charles River CD (Sprague-Dawley), females, in feed, site: liver, lesion: several types, types named in the paper, dosed 104 weeks, study length 104 weeks) was 329 mg/kg/day, the TD50 (rat, strain Charles River CD (Sprague-Dawley), males, in feed, site: liver, lesion: several types, types named in the paper, dosed 104 weeks, study length 104 weeks) was 221 mg/kg/day and the TD50 (rat, strain Charles River CD (Sprague-Dawley), males, in feed, site: testis, lesion: interstitial-cell tumor, dosed 104 weeks, study length 104 weeks) was 405 mg/kg/day. The TD50 (rat, strain Fischer 344, males, in feed, site: liver, lesion: cholangiocarcinoma, dosed 70 weeks, study length 70 weeks) was 681 mg/kg/day, the TD50 (rat, strain Fischer 344, males, in feed, site: liver, lesion: cholangiocarcinoma, dosed 76 weeks, study length 76 weeks) was 509 mg/kg/day and the TD50 (rat, strain Fischer 344, males, in feed, site: liver, lesion: cholangioma, dosed 76 weeks, study length 76 weeks) was 211 mg/kg/day. The TD50 (rat, strain Fischer 344, males, in feed, site: liver, lesion: hepatocellular adenoma, dosed 70 weeks, study length 70 weeks) was 179 mg/kg/day, the TD50 (rat, strain Fischer 344, males, in feed, site: liver, lesion: hepatocellular adenoma, dosed 76 weeks, study length 76 weeks) was 106 mg/kg/day and the TD50 (rat, strain Fischer 344, males, in feed, site: liver, lesion: several types, types named in the paper, dosed 70 weeks, study length 70 weeks) was 113 mg/kg/day. For the same compound, the carcinogen call (rat, strain Fischer 344, males, in feed, site: liver, lesion: several types, types named in the paper, dosed 76 weeks, study length 76 weeks) was “positive”.
`CCNC(=O)N(CCO)N=O` gave a TD50 (rat, strain Fischer 344, females, in drinking water, site: mammary tissue, wider than the gland, lesion: carcinoma, dosed 30 weeks, study length 104 weeks) of 0.501 mg/kg/day, a TD50 (rat, strain Fischer 344, males, in drinking water, site: liver, lesion: one or several types, types not named, dosed 30 weeks, study length 104 weeks) of 1.09 mg/kg/day and a TD50 (rat, strain Fischer 344, males, in drinking water, site: lung, lesion: one or several types, types not named, dosed 30 weeks, study length 104 weeks) of 0.446 mg/kg/day. For the same compound, the TD50 (rat, strain Fischer 344, males, in drinking water, site: nervous system, lesion: one or several types, types not named, dosed 30 weeks, study length 104 weeks) was 0.754 mg/kg/day, the TD50 (rat, strain Fischer 344, males, in drinking water, site: skin, lesion: one or several types, types not named, dosed 30 weeks, study length 104 weeks) was 0.641 mg/kg/day and the TD50 (rat, strain Fischer 344, males, in drinking water, site: tunica vaginalis, lesion: mesothelioma, dosed 30 weeks, study length 104 weeks) was 0.576 mg/kg/day.
`CCc1nc(N)nc(N)c1-c1ccc(Cl)cc1` was tested, and the TD50 [1] was 315 mg/kg/day (inactive), the TD50 (mouse, strain B6C3F1, females, in feed, site: lung, lesion: alveolar/bronchiolar adenoma + alveolar/bronchiolar carcinoma, dosed 78 weeks, study length 104 weeks) was 405 mg/kg/day and the TD50 [2] was 419 mg/kg/day. For the same compound, the TD50 [3] was 27.8 mg/kg/day (inactive) and the carcinogen call [4] was “negative (inactive)”.
In the case of `ClCc1cccnc1`, the TD50 (mouse, strain B6C3F1, females, by gavage, site: any site (literature study), lesion: several types, types named in the paper, dosed 91 weeks, study length 104 weeks) is reported as 141 mg/kg/day, the TD50 (mouse, strain B6C3F1, females, by gavage, site: liver, lesion: hepatocellular adenoma + hepatocellular carcinoma + neoplastic nodule, dosed 91 weeks, study length 104 weeks) is reported as 16300 mg/kg/day and the TD50 (mouse, strain B6C3F1, females, by gavage, site: lung, lesion: alveolar/bronchiolar adenoma + alveolar/bronchiolar carcinoma, dosed 91 weeks, study length 104 weeks) is reported as 1970 mg/kg/day. The TD50 (mouse, strain B6C3F1, females, by gavage, site: stomach, lesion: squamous-cell carcinoma + squamous-cell papilloma, dosed 91 weeks, study length 104 weeks) was 394 mg/kg/day, the TD50 (mouse, strain B6C3F1, males, by gavage, site: any site (literature study), lesion: several types, types named in the paper, dosed 91 weeks, study length 104 weeks) was 64.9 mg/kg/day and the TD50 (mouse, strain B6C3F1, males, by gavage, site: liver, lesion: hepatocellular adenoma + hepatocellular carcinoma + neoplastic nodule, dosed 91 weeks, study length 104 weeks) was 324 mg/kg/day. The TD50 (mouse, strain B6C3F1, males, by gavage, site: lung, lesion: alveolar/bronchiolar adenoma + alveolar/bronchiolar carcinoma, dosed 91 weeks, study length 104 weeks) was 624 mg/kg/day, the TD50 (mouse, strain B6C3F1, males, by gavage, site: stomach, lesion: squamous-cell carcinoma + squamous-cell papilloma, dosed 91 weeks, study length 104 weeks) was 161 mg/kg/day and the TD50 (rat, strain Fischer 344, females, by gavage, site: any site (literature study), lesion: several types, types named in the paper, dosed 93 weeks, study length 104 weeks) was 160 mg/kg/day (inactive). For the same compound, the TD50 (rat, strain Fischer 344, males, by gavage, site: stomach, lesion: squamous-cell carcinoma + squamous-cell papilloma, dosed 93 weeks, study length 104 weeks) was 433 mg/kg/day.
For `CCCCCCCCCCCCCCN(C)N=O`, the carcinogen call (rat, strain Fischer 344, males, by gavage, site: any site (literature study), lesion: several types, types named in the paper, dosed 30 weeks, study length 102 weeks) was “positive”, the TD50 (rat, strain Fischer 344, males, by gavage, site: lung, lesion: adenocarcinoma, dosed 30 weeks, study length 102 weeks) was 60.5 mg/kg/day and the TD50 (rat, strain Fischer 344, males, by gavage, site: lung, lesion: adenoma, dosed 30 weeks, study length 102 weeks) was 29.4 mg/kg/day. The carcinogen call (rat, strain Fischer 344, males, by gavage, site: urinary bladder, lesion: transitional-cell carcinoma, dosed 30 weeks, study length 102 weeks) was “positive”.
For `N[C@@H](Cc1c[nH]c2ccccc12)C(=O)O`, the carcinogen call [1] was “negative (inactive)”, the TD50 (mouse, strain B6C3F1, females, in feed, site: liver, lesion: hepatocellular adenoma + hepatocellular carcinoma + neoplastic nodule, dosed 78 weeks, study length 104 weeks) was 30200 mg/kg/day and the TD50 [2] was 1470 mg/kg/day (inactive). The carcinogen call [3] was “negative (inactive)”, the carcinogen call [4] was “negative (inactive)” and the carcinogen call (rat, strain Fischer, males, in feed, site: urinary bladder, lesion: several types, types named in the paper, dosed 100 weeks, study length 104 weeks) was “negative (inactive)”.
